# In patent publication US20100272696A1, “Human Bone-Forming Cells In The Treatment of Inflammatory Rheumatic Diseases” (BONE THERAPEUTICS S.A., priority 2007, published 2010):
# Key:
# [1] = system: Carrageenan-Induced Ankle/Paw Inflammation; assay: Model of Carrageenan-Induced Ankle/Paw Inflammation (1); assay type: in vivo, SWISS mice; conditions: DEX 1 mg/kg, OB 1*10^6, FIG. 3
# Method: Sigma, Switzerland) in PBS into the hind paw of 8 weeks old SWISS mice; each animal receiving a single injection in each hind paw (Table 3). […] Sigma Switzerland) at a concentration of 1 mg/kg, or 1*10^6 human bone-forming cells (OB) (derived from bone marrow mesenchymal stromal cells as described in Example 1A) or a combination of DEX and OB. [table]
# [2] = system: Carrageenan-Induced Ankle/Paw Inflammation; assay: Model of Carrageenan-Induced Ankle/Paw Inflammation (2); assay type: in vivo, SWISS mice; conditions: DEX 1 mg/kg, OB 1*10^6, FIG. 4
# Method: Inflammation was induced by injection of a solution containing 1% lambda carrageenan (CARRA; Sigma, Switzerland) in PBS into the hind paw of 8 weeks old SWISS mice; each animal receiving a single injection in each hind paw (Table 4). Carrageenan injected animals received immediately after injection or PBS only, or a solution of Dexamethasone (DEX; Sigma Switzerland) at a concentration of 1 mg/kg, or 1*10^6 human bone-forming cells (OB) (derived from bone marrow mesenchymal stromal cells as described in Example 1A).
# Under isoflurane sedation, the circumference of ankles and paws was measured using a digital caliper before the injection at T0 and at T1, T4, T6 and T24; respectively before CARRA administration, and 1 h, 4 h, 6 h and 24 hours after the injection.
smiles,measurement,setting,value
C[C@@H]1C[C@H]2[C@@H]3CCC4=CC(=O)C=C[C@]4(C)[C@@]3(F)[C@@H](O)C[C@]2(C)[C@@]1(O)C(=O)CO [Dexamethasone],inhibition of inflammation (ankle diameter),[1]; 1 h after carrageenan,100%
same,inhibition of inflammation (ankle diameter),[1]; 4 h after carrageenan,100%
same,inhibition of inflammation (paw diameter),[2]; 1 h after carrageenan,100%
same,inhibition of inflammation (paw diameter),[2]; 6 h after carrageenan,70%
same,inhibition of inflammation (paw diameter),[2]; 24 h after carrageenan,38%
